Values quoted from earlier work, collected in patent US20220378773A1, “METHODS FOR TREATING LEUKEMIA AND USE OF A LEUKEMIC STEM CELL SIGNATURE TO PREDICT CLINICAL SENSITIVITY TO THERAPIES” (CELGENE CORPORATION, priority 2019, published 2022).

Key:
[1] = relative humidity increased from about 0% to about 90% RH; cited from earlier work
[2] = system: acute myeloid leukemia (AML) at relapse; settings: administered alone; cited from earlier work

Row | Compound | water uptake [1] | response in treating AML at relapse [2]
1 | O=C1CCC(N2Cc3cc(CNC(=O)C(F)(F)c4ccc(Cl)cc4)ccc3C2=O)C(=O)N1 (stereo not shown) [Form B, 2-(4-chlorophenyl)-N-((2-(2,6-dioxopiperidin-3-yl)-1-oxoisoindolin-5-yl)methyl)-2,2-difluoroacetamide] | about 1.4 % w/w | –
2 | O=C1CCC(N2Cc3cc(CNC(=O)C(F)(F)c4ccc(Cl)cc4)ccc3C2=O)C(=O)N1 (stereo not shown) [Form A, 2-(4-chlorophenyl)-N-((2-(2,6-dioxopiperidin-3-yl)-1-oxoisoindolin-5-yl)methyl)-2,2-difluoroacetamide] | about 1.2 % w/w | –
3 | O=C1CCC(N2Cc3cc(CNC(=O)C(F)(F)c4ccc(Cl)cc4)ccc3C2=O)C(=O)N1 (stereo not shown) [Form C, 2-(4-chlorophenyl)-N-((2-(2,6-dioxopiperidin-3-yl)-1-oxoisoindolin-5-yl)methyl)-2,2-difluoroacetamide] | about 0.6 % w/w | –
4 | CT-011: anti-PD-1 antibody, a humanized antibody | – | failed to show response
